Source: US20120165319A1, “INHIBITORS OF INTERLEUKIN-1 BETA CONVERTING ENZYME” (VERTEX PHARMACEUTICALS INCORPORATED, priority 1995, published 2012)

Columns and labels:
IFN-γ, human PBMC = experiment: Human PBMC assay (Example 27): IFN-γ production; format: cell-based; details: LPS-stimulated human PBMCs (FIG. 5); read-out: IC50, decrease of IFN-γ production
Experimental: (§1) Since the processing and secretion of biologically active IGIF is mediated by ICE, we compared the activity of a reversible ICE inhibitor (Ac-YVAD-CHO) on IL-1β and IFN-γ production in a peripheral blood mononuclear cell (PBMC) assay (Examples 27).
(§2) Human buffy coat cells were obtained from blood donors and peripheral blood mononuclear cells (PBMC) were isolated by centrifugation in LeukoPrep tubes (Becton-Dickinson, Lincoln Park, N.J.). PBMC were added (3×10^6/well) to 24 well Corning tissue culture plates and after 1 hr incubation at 37° C., non-adherent cells were removed by gently washing. Adherent mononuclear cells were stimulated with LPS (1 μg/ml) with or without ICE inhibitor in 2 ml RPMI-1640-10% FBS. After 16-18 hr incubation at 37° C., IGIF and IFN-γ were quantitated in culture supernatants by ELISA.

IL-1β, human PBMC = experiment: Human PBMC assay (Example 27): IL-1β production; format: cell-based; details: LPS-stimulated human PBMCs (FIG. 5); read-out: IC50, decrease of IL-1β production
Experimental: as §1, §2

ICE = molecular target: T1, ICE (Homo sapiens, UniProt P29466); experiment: Enzyme assay with UV-visible substrate (visible ICE assay, Succinyl-Tyr-Val-Ala-Asp-pNitroanilide); format: biochemical; details: Table 5
T1 sequence (P29466 120-297 limits assumed): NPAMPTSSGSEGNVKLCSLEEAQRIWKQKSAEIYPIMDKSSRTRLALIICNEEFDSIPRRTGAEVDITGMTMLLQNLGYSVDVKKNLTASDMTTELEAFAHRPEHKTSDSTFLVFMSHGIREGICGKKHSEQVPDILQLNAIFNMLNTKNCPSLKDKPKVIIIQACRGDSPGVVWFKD
T1 sequence (P29466 317-404 limits assumed): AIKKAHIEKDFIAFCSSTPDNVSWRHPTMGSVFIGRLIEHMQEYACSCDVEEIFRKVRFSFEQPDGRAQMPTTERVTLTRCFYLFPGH
Outline: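 Buffer, ICE and inhibitor in DMSO are combined and held 15 min at room temperature. Succinyl-Tyr-Val-Ala-Asp-pNA is then added and absorbance at 405-603 nm tracked for 20 min at 37° C.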

[1] = tested on: IL-1β, human peripheral blood mononuclear cells (PBMC); experiment: PBMC cell assay: IL-1β assay with human PBMC or enriched adherent mononuclear cells, LPS-stimulated; format: cell-based; details: Homo sapiens, PBMC, * = values obtained upon reassay
Outline: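 Buffy-coat human PBMC at 6×10^6 cells/ml, or adherent monocytes enriched by 1 h adherence (2.5−3.0×10^5 cells/well), are given 5–6 compound dilutions bracketing the ICE Ki (final DMSO 0.1%) plus LPS at a final 5 ng/ml. They are incubated 16–18 hr at 37 °C, 5% CO2, and supernatant mature IL-1β is measured by ELISA, with duplicate cultures and duplicate ELISAs.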

[2] = tested on: IL-1β production, LPS-challenged mice; experiment: In vivo acute assay for efficacy as anti-inflammatory agent: LPS-induced IL-1β production in mice; design: species or system mouse; details: LPS challenged mice, PO, 50 mg/kg; * = values obtained in subsequent assays (Table 4)
Outline: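 CD1 mice (n=6) were challenged with LPS 20 mg/kg IP and given compound IP in olive oil:DMSO:ethanol (90:5:5) 1 h after LPS, or at the time of challenge for some analogs. Blood was taken 7 h after LPS and serum IL-1β was measured by ELISA. Oral gavage at 50 mg/kg was also tested.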

[3] = Measurement of blood levels of prodrugs of 214e after p.o. dosing in mice; format: in vivo, mouse; details: p.o. 50 mg/kg in 0.5% carboxymethylcellulose, blood at 1 and 7 hours
Experimental: Measurement of Blood Levels of Prodrugs of 214e
Mice were administered a p.o. dose of compounds 302 and 304a (50 mg/kg) prepared in 0.5% carboxymethylcellulose. Blood samples were collected at 1 and 7 hours after dosing. Serum was extracted by precipitation with an equal volume of acetonitrile containing 2% formic acid followed by centrifugation. The supernatant was analyzed by liquid chromatography-mass spectrometry (ESI-MS) with a detection level of 0.03 to 3 μg/ml.

Compound	IC50 (IFN-γ, human PBMC) [µM]	IC50 (IL-1β, human PBMC) [µM]	Ki (ICE) [µM]	IC50 [1] [µM]	Inhibition of IL-1β Production, compound administered 0 hr relative to LPS challenge [2] [%]	Inhibition of IL-1β Production, compound administered +1 hr relative to LPS challenge [2] [%]	Inhibition of IL-1β Production, compound administered −1 hr relative to LPS challenge [2] [%]	Inhibition of IL-1β Production, compound administered −2 hr relative to LPS challenge [2] [%]	blood levels when administered orally (in words) [3]
AcYVAD-CHO [Ac-YVAD-CHO, reference compound]	2.5	2.5	–	–	–	–	–	–	–
COC1OC(=O)C[C@@H]1NC(=O)[C@@H]1CCCN2C(=O)CC[C@H](NC(=O)c3ccccc3)C(=O)N12 (stereo partly drawn) [Compound 304a, [1S,9S (2RS,3S)]9-Benzoylamino-6,10-dioxo-1,2,3,4,7,8,9,10-octahydro-N-(2-methoxy-5-oxo-tetrahydro-furan-3-yl)-6H-pyridazino[1,2-a][1,2]diazapine-1-carboxamide]	–	–	0.2	1.4	68	37	33	30	detectable blood levels
